Results reported in patent US7033829B2, “Method to inhibit cell growth using oligonucleotides” (Trustees of Boston University, priority 2000, dated 2006).
Oligonucleotides are written 5' to 3', each unit as a sugar letter and its base; * is a phosphorothioate linkage, no mark a phosphodiester; rarer units and linkages stand in square brackets, end groups in braces. Plain capitals give the bases only. d = 2'-deoxy (DNA); {P} = phosphate

Experiments:
Format in all cases: cell-based, human
[1] = system: squamous carcinoma line SCC12F; experiment: Cell yields of UVA-irradiated SCC12F cells after pretreatment; conditions: 100 μM 3 days pretreatment; 10 J/cm^2 UVA
Experimental: Cells from the well differentiated squamous carcinoma line SCC12F (gift of Dr. James Rheinwald, Harvard University) were treated with 100 μM pTpT or diluent as control for 3 days. Then cells were re-plated in medium lacking pTpT and were sham- or UV-irradiated with 10 J/cm^2 UVA (Sellas Sunlight UVA lamp). Cell yields were determined at different intervals after UV irradiation.

Jurkat cells = experiment: TUNEL assay in Jurkat cells; conditions: 40 μM; 72 hours
Experimental: Cells were plated at a density of 180,000 cells/ml in RPMI 1640 medium supplemented with 3% FBS. Cells were treated with 40 μM of either of the oligonucleotides for 72 hours. Cells were then collected, washed and fixed for 30 minutes in 4% paraformaldehyde and then permeabilized with 0.1% Triton X-100 for 2 minutes. The TUNEL assay was carried out with components and instructions of the In Situ Cell Death Detection Kit using fluorescein-labeled dUTP from Boehringer Mannheim. TUNEL-positive cells were detected by FACS analysis and confocal microscopy. […] Uptake of the oligonucleotides was assessed in 5–10 μm sections with a Carl Zeiss LSM 510 confocal laser microscope. […] Fluorescence was measured on the FL-1 channel. […] Antibody Ab-6 (DO-1 clone, Oncogene Research Products, Cambridge, Mass.) detected p53; antibody KH95 (Santa Cruz Biotechnology, Inc., Santa Cruz, Calif.) detected E2F1; antibody Ab-4 (Oncogene Research products) detected p73. Phospho-p53 (serine 15) was detected using the #9284 polyclonal antibody and phospho-p95/Nbs1 (serine 343) was detected by a phospho-p95/Nbs1-specific polyclonal antibody, both antibodies from Cell Signaling Technology (Beverly, Mass.). p95/Nbs1 antibody (#NB-100-143, Novus Biologicals, Littleton, Colo.) and an actin antibody (I-19, Santa Cruz Biotechnology, Santa Cruz, Calif.) were also used. […]

[2] = system: p53-null osteosarcoma cell line (Saos-2); experiment: FACS cell cycle analysis of Saos-2 cells; conditions: 40 μM; 48 hours
From the text: In order to determine whether these oligonucleotides similarly affect other human cell types and to investigate the role of p53, we treated a squamous cell carcinoma line (SCC12F) (Rheinwald, J. G., et al., 1983, Human carcinogenesis. pp. 86–96. Academic Press (New York)) that over-expresses a presumptively mutated p53 (Eller, M. S. and B. A. Gilchrest. 2000, Pigment Cell Res. 13: 94–97) and a p53-null osteosarcoma cell line (Saos-2) (Wang, L. H., et al., 1998, Anticancer Res 18: 321–325) with either diluent alone, 11mer-1, 11mer-2 or 11mer-3. Cultures were analyzed by FACS after 48 hours (FIGS. 33A–33H). […] Although the percentage of cells in the S-phase in 11mer-1-treated SCC12F and Saos-2 cells was virtually identical (53±6% and 52±1%, respectively), the G0/G1 and G2/M content of the two cell types were somewhat different. This may reflect differential uptake of the oligonucleotide leading to dose-dependent differences, and/or different pathways acting in these cells to control the cell cycle. No apoptotic response to the oligonucleotides was detected in either cell type within 72 hours.

NBS fibroblasts = experiment: FACS analysis of NBS fibroblasts; conditions: 40 μM
Experimental: Fibroblasts were obtained from an NBS (Nijmegen breakage syndrome) patient, in which p95/Nbs1 was below the level of detection. Preconfluent cultures or normal (control) fibroblasts and NBS fibroblasts were treated with 40 μM of the oligonucleotides and collected after 48 hours for FACS analysis (FIGS. 34A–34H). The averages and standard deviations were calculated from triplicate cultures of each condition. FACS profiles from one representative experiment of three are shown.

Row | Substance | yields of UVA irradiated cells [1] | TUNEL fluorescence (FACS, confocal microscopy) (Jurkat cells) | cells in the S-phase [2] [%] | proliferation compared to diluent-treated NBS cells (NBS fibroblasts) | increase in the number of S-phase cells compared to diluent (NBS fibroblasts; 48 hours, not statistically significant (p<0.08)) [%]
1 | thymidine dinucleotide [pTpT] | increased the yields of UVA irradiated cells |  |  |  | 
2 | pGTTAGGGTTAG (DNA {P}-dGdTdTdAdGdGdGdTdTdAdG) [SEQ ID NO: 5] |  | an increase in fluorescence due to end-label incorporation | 52±1 | minimally affected | 8
